Consider eight compounds from patent US6569867B2, “Polyketide derivatives” (Kosan Biosciences, Inc., priority 1999, dated 2003).

In data set [1] the test system is SH-SY5Y human neuroblastoma cells. The data set is described as follows: Nerve growth (neurite length) assay. The data set is classed as cell-based. How it is done:
Table 9 summarizes the results of nerve growth as using SH-SY5Y human neuroblastoma cells according to Gold et al., Exp Neuro, 147(2): 269-87 (1997) which is incorporated herein by reference. The assay measures the mean neurite length in […] that were induced at 0.1 nM and 10 nM of the compound of interested after 96 or 168 hours.

Another data set addresses calcineurin (Bos taurus, UniProt P48452+P62942+P63099). In words: Calcineurin phosphatase inhibition assay (FKBP-compound complex). The format is biochemical. The conditions noted are these: 15 nM calcineurin, 30 nM calmodulin, 1 uM phospho-RII peptide, 30° C. On the procedure:
The catalytic subunit of protein kinase A was used to transfer the labeled phosphate from [γ-^32P]ATP to […] of the RII peptide. […] Fractions were collected and monitored by scintillation counting. […] The columns were prepared by resuspending the resin in water such that there was one volume of water above each volume of settled resin. The slurry (1 mL) was then pipetted into each column, followed by 10 mL of water. The bed volume was verified, then each column was washed with 1 mL 1 N NaOH, 2 mL 1 N HCl, and 4 mL water. Quenched reaction mixtures were applied to the columns, washed twice with 750 uL of water and the eluate was collected directly into scintillation vials. Scintiverse BD (15 mL) was added to each vial, and ^32PO4 was quantitated by scintillation counting. […] Following a 30 minute preincubation, reactions were initiated by addition of the phospho-RII peptide substrate to 1 uM and incubated at 30° C. Aliquots were removed at 3 and 35 minutes, quenched, and PO4 release was measured as described above.

Another data set concerns the target T1, Human 3A4 P-450 (Homo sapiens, UniProt P08684).
T1 construct: purchased Gentest Corporation (Woburn, Mass.) P207
In words: P450 stability assay with 3A4 P-450 supersomes. The data set is classed as in vitro ADME. The conditions noted are these: 20 μM FK species, 200 pmole P-450/mL, 37° C. On the procedure: A mixture containing FK species and a NADPH regenerating system was pre-incubated at 37° C. for 10 minutes before the reaction was commenced by the addition of the P-450 supersomes. The final concentrations of the components were: 100 mM potassium phosphate, pH 7.4; 3.3 mM MgCl2; 3.3 mM glucose-6-phosphate; 1.3 mM NADP; 0.4 U/mL glucose-6-phosphate dehydrogenase; 200 pmole P-450/mL; and 20 μM FK species. Control reactions contained “mock” supersomes without 3A4 P-450 activity. Human 3A4 P-450+Reductase supersomes (cat #P207) and vector control “mock” supersomes without 3A4P-450 (cat #P201) were obtained from Gentest Corporation (Woburn, Mass.).
Following addition of supersomes or mock supersomes, reactions were terminated at 0 minutes (immediately upon addition of P-450) and 30 minutes by addition of acetonitrile containing 0.1% acetic acid to 20% final acetonitrile concentration, followed by freezing immediately on dry ice. For reactions containing the 13-desmethoxy-13-methyl-32-(2-hydroxyethylindolyl)-FK analog, an equal volume of MeOH was added following addition of acetonitrile and the samples were immediately frozen on dry ice. The samples were clarified by centrifugation at 13,000 rpm for 5 minutes at 4° C. in a micro centrifuge prior to HPLC analysis.
The following HPLC program was employed: Column =MetaChem 0.46×15 cm intersil C18 column (5 μm); Solvent A=0.1% HOAc in water; Solvent B=0.1 % HOAc in acetonitrile. Detection=UV (210 nm) and ELSD. Gradient: Equilibration with 20% B; injection (up to 1 ml), hold at 20% B for 5 minutes; linear gradient to 50% B in 5 minutes; linear gradient to 100% B in 20 minutes; to 20% B in 1 minute; hold at 20% B for 10 minutes to equilibrate.
There was no change in peak area after 30 minutes when the FK analogs were incubated with mock supersomes.

In a further data set the target is T2, FKBP-12 (Homo sapiens, UniProt P62942).
T2 construct: purchased Sigma; host or cells: E. coli
In words: FKBP-12 binding assay ([3H]FK-506 competition). On the procedure: Calcineurin (“>95% pure by SDS/PAGE”) was obtained from Calbiochem. Neutravidin® coated strip plates, pre-blocked with SuperBlock® were obtained from Pierce. […] Synthetic RII peptide (^+[…]^-) was obtained from Peptides International (Louisville, […].com). […] ATP, cAMP, the catalytic subunit of protein kinase A, bovine brain calmodulin and human FKBP, expressed in E. coli were obtained from Sigma. […] The mixture was incubated for 2 hours at 0° C., the solution was aspirated from the wells, and each well was quickly washed with 300 uL of ice cold PBS-tween. Wells were broken apart, placed in scintillation vials with 10 mL of Scintiverse BD and bound radioactivity was quantitated by scintillation counting. […] to calculate the Kd.

The conditions of data set [2]: cited from earlier work.

Where “and” joins values, the source holds several entries; their conditions need not be identical. Equal values may be shown once. Read-outs that look alike come from different tables or passages of the source. Some results are limits rather than exact numbers.

In data set [1], “18-ene-20-oxa-13-desmethoxy-13-methyl-FK-520” gave a Neurite Length at 0.1 nM 96 h of 144 µm, a Neurite Length at 0.1 nM 168 h of 184 µm, a Neurite Length at 10 nM 96 h of 104 µm and a Neurite Length at 10 nM 168 h of 135 µm.

Broadly, the Ki is a dissociation constant, usually derived from enzyme kinetics or from competition with a known ligand. As a reminder, the Kd is the constant that tells how readily two partners part at equilibrium. A high value points to lower affinity. Turning to “32-[1-(2-Hydroxyethyl)-indol-5-yl]-13-desmethoxy-FK-520”, the Ki on calcineurin was < 15 nM and 22 nM. For the same compound, the “P450 % Stability (at 30 min)” value at Human 3A4 P-450 is 72% and 77%. The Kd on FKBP-12 (competition with 0.5 μM [3H]FK-506, 2 hours at 0° C., Kd of [3H]FK-506 assumed to be 0.4 nM) was 16.3 nM and 10.4 nM.

Compound `CC[C@@H]1/C=C(\C)C(O)[C@H](C)C[C@H](OC)[C@H]2O[C@@](O)(C(=O)C(=O)N3CCCC[C@H]3C(=O)O[C@H](/C(C)=C/[C@@H]3CC[C@@H](O)[C@H](OC)C3)[C@H](C)[C@@H](O)CC1=O)[C@H](C)C[C@@H]2C` (stereo partly drawn) [13-desmethoxy-13-methyl-18-hydroxyl-FK-520] returned a Kd at FKBP-12 of approximately 1 nM. In data set [1], this compound had a Neurite Length at 0.1 nM 96 h of 168 µm, a Neurite Length at 0.1 nM 168 h of 191 µm, a Neurite Length at 10 nM 96 h of 132 µm and a Neurite Length at 10 nM 168 h of 165 µm.

Take `CC[C@@H]1/C=C(\C)C[C@H](C)C[C@H](OC)[C@H]2O[C@@](O)(C(=O)C(=O)N3CCCC[C@H]3C(=O)O[C@H](/C(C)=C/[C@@H]3CC[C@@H](O)[C@H](OC)C3)[C@H](C)[C@@H](O)CC1=O)[C@H](C)C[C@@H]2C` [13-desmethoxy-13-methyl-FK-520]: at Human 3A4 P-450, the “P450 % Stability (at 30 min)” value was determined as 26%. The affinity on FKBP-12, expressed as Kd, was 1.6 nM.

Consider `CC[C@@H]1/C=C(\C)C[C@H](C)C[C@H](OC)[C@@H]2CC[C@@H](C)[C@@](O)(O2)C(=O)C(=O)N2CCCC[C@H]2C(=O)O[C@H](/C(C)=C/[C@@H]2CC[C@@H](O)[C@H](OC)C2)[C@H](C)[C@@H](O)CC1=O` [13-desmethoxy-FK-520], for which, on Human 3A4 P-450, the “P450 % Stability (at 30 min)” value worked out at 35%. Also, at FKBP-12, the Kd was determined as 0.4 nM.

For `C=CC[C@@H]1/C=C(\C)C[C@H](C)C[C@H](OC)[C@H]2O[C@@](O)(C(=O)C(=O)N3CCCC[C@H]3C(=O)O[C@H](/C(C)=C/[C@@H]3CC[C@@H](O)[C@H](OC)C3)[C@H](C)[C@@H](O)CC1=O)[C@H](C)C[C@@H]2OC.O` [FK-506, tacrolimus], in data set [2] (in vivo), the “excreted unchanged in urine” value is recorded as “less than 1%” and the half-life for distribution is 54 min. In addition, the “bioavailability with co-administration of ketoconazole” value in data set [2] (ketoconazole, a drug that inhibits P450 3A) is recorded as “doubles”. Further, in data set [2] (oral, range 5 to 65%), the “mean bioavailability of the oral dosage form” value is given as 27%.

In the case of `CC[C@@H]1/C=C(\C)C[C@H](C)C[C@H](OC)[C@H]2O[C@@](O)(C(=O)C(=O)N3CCCC[C@H]3C(=O)O[C@H](/C(C)=C/[C@@H]3CC[C@@H](O)[C@H](OC)C3)[C@H](C)[C@@H](O)CC1=O)[C@H](C)C[C@@H]2OC` [FK-520, ascomycin, reference compound], the “P450 % Stability (at 30 min)” value at Human 3A4 P-450 turned out to be 46%. This compound also came in with a Kd on FKBP-12 of 0.4 nM.

Take “Nerve Growth Factor: protein neurotrophic molecule used as comparator in the neurite length assay”: in data set [1], the Neurite Length at 0.1 nM 96 h amounted to 143 µm and the Neurite Length at 0.1 nM 168 h amounted to 169 µm.
